Experimental data published in patent US7238724B2, “Pharmaceutical compositions as inhibitors of dipeptidyl peptidase-IV (DPP-IV)” (Abbott Laboratories, priority 2004, dated 2007).

Key:
DPP8 = DPP8 (Homo sapiens, UniProt Q6V1X1); experiment: DPP8 inhibitory constant (Table 1 selectivity comparison); type: biochemical
[1] = test system: Normal mice (C57/BL6 strain); experiment: acute oral glucose tolerance test (OGTT); type: in vivo; conditions: OGTT 5 gm/kg
Description: Compounds of the present invention were evaluated for their ability to treat diabetes using an acute oral glucose tolerance test (OGTT) as follows: Normal mice (C57/BL6 strain), 6-7 weeks of age, on a normal chow diet, were fasted for 3 hrs. A baseline tail snip blood sample was taken to measure glucose levels (Precision PCx glucose meter, Abbott Laboratories, Abbott Park, Ill.) at the beginning of the experiment. Immediately after this baseline sample, compounds of the present invention (or placebo) were dosed orally. One hour later, a tail snip blood glucose measurement was taken, immediately followed by an oral glucose dose (OGTT, 5 gm/kg). The glucose excursion was followed for 2 hours with samples taken at 10, 20, 30, 60 and 120 minutes post OGTT. These timed glucose data were used to construct a glucose excursion curve, from which an area under the glucose curve (AUGC) was determined. The data reported in Table 2 is the baseline-adjusted area under the glucose curve (δAUGC) for drug and control groups.

DPP9 = DPP9 (Homo sapiens, UniProt Q86TI2); experiment: DPP9 inhibitory constant (Table 1 selectivity comparison); type: biochemical
Chain of DPP9 (Q86TI2 whole entry, species assumed): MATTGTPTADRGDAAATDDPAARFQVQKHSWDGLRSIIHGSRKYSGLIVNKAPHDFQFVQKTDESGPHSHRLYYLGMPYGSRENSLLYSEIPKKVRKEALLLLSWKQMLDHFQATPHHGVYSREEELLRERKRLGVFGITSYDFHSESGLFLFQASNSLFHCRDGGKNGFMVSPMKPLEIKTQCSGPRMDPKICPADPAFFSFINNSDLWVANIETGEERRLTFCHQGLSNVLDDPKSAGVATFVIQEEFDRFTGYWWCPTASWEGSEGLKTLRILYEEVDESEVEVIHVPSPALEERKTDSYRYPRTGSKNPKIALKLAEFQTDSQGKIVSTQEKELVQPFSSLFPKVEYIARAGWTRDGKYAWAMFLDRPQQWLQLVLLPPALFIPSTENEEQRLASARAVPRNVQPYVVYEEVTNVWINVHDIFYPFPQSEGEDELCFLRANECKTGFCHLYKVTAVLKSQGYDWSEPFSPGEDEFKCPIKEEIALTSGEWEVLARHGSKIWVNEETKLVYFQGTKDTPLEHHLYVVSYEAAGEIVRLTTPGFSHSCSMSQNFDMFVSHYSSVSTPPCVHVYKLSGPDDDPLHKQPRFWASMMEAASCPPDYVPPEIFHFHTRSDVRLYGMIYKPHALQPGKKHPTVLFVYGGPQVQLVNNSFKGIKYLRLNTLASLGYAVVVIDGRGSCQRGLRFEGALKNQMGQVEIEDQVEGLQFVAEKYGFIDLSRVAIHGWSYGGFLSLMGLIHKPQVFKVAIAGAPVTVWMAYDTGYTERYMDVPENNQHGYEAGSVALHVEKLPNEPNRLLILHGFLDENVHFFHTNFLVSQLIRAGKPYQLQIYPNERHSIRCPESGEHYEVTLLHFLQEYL

Chain of DPP8 (Q6V1X1 whole entry, species assumed): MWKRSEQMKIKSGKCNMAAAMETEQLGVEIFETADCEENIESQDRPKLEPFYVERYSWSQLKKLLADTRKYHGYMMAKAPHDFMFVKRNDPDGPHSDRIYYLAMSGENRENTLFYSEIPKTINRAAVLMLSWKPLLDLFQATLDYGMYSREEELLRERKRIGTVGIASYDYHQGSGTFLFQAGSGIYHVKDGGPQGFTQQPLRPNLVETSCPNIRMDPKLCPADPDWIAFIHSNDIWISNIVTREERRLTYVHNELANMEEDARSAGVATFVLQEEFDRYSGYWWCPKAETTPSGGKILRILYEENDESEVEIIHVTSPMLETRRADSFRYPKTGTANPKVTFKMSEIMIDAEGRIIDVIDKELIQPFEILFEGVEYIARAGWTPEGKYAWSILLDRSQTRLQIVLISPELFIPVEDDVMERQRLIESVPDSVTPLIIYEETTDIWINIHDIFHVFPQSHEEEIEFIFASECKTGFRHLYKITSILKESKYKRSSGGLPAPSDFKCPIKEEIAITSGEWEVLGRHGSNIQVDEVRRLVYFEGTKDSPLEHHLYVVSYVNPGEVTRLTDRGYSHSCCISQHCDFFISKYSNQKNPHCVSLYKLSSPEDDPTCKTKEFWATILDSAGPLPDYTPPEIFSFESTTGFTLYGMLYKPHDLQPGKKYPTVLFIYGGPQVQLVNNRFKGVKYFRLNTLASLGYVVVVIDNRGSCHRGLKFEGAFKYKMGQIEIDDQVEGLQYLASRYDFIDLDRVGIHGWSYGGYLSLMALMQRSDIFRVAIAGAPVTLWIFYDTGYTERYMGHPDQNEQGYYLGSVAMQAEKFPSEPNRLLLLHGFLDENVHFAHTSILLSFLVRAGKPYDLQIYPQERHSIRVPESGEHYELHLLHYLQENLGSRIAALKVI

SMILES	Ki (DPP8)	δ AUGC, change versus Control ([1]; 1.0 mg/kg dosed orally)	δ AUGC, change versus Control ([1]; 3.0 mg/kg dosed orally)	Ki (DPP9)
C#C[C@H]1CC[C@@H](C#N)N1C(=O)CN[C@H]1CC[C@H](Oc2ccc(C#N)cn2)CC1 (relative stereo) [Compound 3, (2S,5R)-5-ethynyl-1-{N-(4-trans(5-cyano-pyridin-2-yloxy)cyclohexyl)glycyl}pyrrolidine-2-carbonitrile]	> 30 µM	−39%	−54%	
CC(C)(C)NCC(=O)N1[C@H](C#N)CC[C@@H]1C#N [Compound 9, (2R,5S)-1-[(tert-butylamino)acetyl]pyrrolidine-2,5-dicarbonitrile]	> 100 µM			> 100 µM
